# Experimental data taken from patent publication US20080051466A1, “Isoalpha acid based protein kinase modulation cancer treatment” (Metaproteomics, LLC, priority 2006, published 2008).
# Experiments:
# Test in all cases: KinaseProfiler Assay
# Type in all cases: biochemical
# [1] = target: Fgr (Homo sapiens, UniProt P09769); conditions: read-out: Fgr, % of Control
# [2] = target: Fyn (Homo sapiens, UniProt P06241); conditions: read-out: Fyn, % of Control
# [3] = target: GSK3α (Homo sapiens, UniProt P49840); conditions: read-out: GSK3α, % of Control
# [4] = target: T1, TBK1 (Homo sapiens, UniProt Q9UHD2); conditions: read-out: TBK1, % of Control
# T1 sequence (Q9UHD2 1-729): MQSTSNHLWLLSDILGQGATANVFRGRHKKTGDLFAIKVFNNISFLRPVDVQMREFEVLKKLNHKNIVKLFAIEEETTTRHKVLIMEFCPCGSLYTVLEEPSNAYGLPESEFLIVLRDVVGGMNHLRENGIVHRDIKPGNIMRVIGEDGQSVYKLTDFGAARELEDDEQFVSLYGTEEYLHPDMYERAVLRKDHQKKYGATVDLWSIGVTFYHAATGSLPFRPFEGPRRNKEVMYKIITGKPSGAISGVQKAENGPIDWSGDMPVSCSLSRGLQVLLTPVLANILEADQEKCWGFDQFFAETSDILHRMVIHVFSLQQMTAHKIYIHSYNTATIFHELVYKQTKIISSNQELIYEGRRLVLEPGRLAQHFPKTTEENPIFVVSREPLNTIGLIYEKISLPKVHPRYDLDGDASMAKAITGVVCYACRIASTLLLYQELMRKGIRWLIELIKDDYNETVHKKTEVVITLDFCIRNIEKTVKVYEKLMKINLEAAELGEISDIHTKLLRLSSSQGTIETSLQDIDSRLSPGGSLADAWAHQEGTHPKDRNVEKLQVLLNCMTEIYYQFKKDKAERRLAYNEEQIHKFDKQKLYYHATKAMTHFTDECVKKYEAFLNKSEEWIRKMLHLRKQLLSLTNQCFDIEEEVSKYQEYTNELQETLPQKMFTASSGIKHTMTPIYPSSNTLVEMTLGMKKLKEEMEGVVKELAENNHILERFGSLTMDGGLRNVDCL
# [5] = target: SGK (Homo sapiens, UniProt O00141); conditions: 5 ug/ml; read-out: SGK, % of Control
# [6] = target: CDK5/p25 (Homo sapiens, UniProt Q00535); conditions: read-out: CDK5/p25, % of Control
# [7] = target: FGFR2 (Homo sapiens, UniProt P21802); conditions: read-out: FGFR2, % of Control
# [8] = target: T2, DRAK1 (Homo sapiens, UniProt Q9UEE5); conditions: read-out: DRAK1, % of Control
# T2 sequence (Q9UEE5 1-414): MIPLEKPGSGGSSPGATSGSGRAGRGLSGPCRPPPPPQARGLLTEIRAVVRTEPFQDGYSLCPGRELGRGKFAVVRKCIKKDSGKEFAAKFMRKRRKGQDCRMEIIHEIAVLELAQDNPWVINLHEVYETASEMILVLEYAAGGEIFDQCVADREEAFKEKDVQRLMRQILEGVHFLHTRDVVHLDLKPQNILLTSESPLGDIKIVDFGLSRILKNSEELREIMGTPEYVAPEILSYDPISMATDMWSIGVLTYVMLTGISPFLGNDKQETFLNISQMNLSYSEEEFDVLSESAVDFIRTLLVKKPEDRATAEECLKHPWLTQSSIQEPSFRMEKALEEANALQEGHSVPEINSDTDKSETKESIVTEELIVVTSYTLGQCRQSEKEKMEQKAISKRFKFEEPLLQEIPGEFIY
# [9] = target: T3, TSSK2 (Homo sapiens, UniProt Q96PF2); conditions: read-out: TSSK2, % of Control
# T3 sequence (Q96PF2 1-358): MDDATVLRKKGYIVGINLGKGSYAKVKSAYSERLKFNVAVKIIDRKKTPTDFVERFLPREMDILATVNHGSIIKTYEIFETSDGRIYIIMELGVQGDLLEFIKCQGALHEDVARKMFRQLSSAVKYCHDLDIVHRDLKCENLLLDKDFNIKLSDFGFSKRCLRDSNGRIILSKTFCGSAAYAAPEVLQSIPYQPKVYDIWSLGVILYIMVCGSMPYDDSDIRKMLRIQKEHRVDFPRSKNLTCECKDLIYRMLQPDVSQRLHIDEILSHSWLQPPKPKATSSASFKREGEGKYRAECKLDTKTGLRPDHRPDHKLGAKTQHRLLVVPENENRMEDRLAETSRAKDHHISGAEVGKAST
# [10] = target: p70S6K (Homo sapiens, UniProt P23443); conditions: read-out: p70S6K, % of Control
# [11] = target: Fes (Homo sapiens, UniProt P07332); conditions: read-out: Fes, % of Control
# [12] = target: cKit(D816H) (Homo sapiens, UniProt P10721, D816H); conditions: read-out: cKit(D816H), % of Control
# Sequence of cKit(D816H) (P10721 26-976 D816H): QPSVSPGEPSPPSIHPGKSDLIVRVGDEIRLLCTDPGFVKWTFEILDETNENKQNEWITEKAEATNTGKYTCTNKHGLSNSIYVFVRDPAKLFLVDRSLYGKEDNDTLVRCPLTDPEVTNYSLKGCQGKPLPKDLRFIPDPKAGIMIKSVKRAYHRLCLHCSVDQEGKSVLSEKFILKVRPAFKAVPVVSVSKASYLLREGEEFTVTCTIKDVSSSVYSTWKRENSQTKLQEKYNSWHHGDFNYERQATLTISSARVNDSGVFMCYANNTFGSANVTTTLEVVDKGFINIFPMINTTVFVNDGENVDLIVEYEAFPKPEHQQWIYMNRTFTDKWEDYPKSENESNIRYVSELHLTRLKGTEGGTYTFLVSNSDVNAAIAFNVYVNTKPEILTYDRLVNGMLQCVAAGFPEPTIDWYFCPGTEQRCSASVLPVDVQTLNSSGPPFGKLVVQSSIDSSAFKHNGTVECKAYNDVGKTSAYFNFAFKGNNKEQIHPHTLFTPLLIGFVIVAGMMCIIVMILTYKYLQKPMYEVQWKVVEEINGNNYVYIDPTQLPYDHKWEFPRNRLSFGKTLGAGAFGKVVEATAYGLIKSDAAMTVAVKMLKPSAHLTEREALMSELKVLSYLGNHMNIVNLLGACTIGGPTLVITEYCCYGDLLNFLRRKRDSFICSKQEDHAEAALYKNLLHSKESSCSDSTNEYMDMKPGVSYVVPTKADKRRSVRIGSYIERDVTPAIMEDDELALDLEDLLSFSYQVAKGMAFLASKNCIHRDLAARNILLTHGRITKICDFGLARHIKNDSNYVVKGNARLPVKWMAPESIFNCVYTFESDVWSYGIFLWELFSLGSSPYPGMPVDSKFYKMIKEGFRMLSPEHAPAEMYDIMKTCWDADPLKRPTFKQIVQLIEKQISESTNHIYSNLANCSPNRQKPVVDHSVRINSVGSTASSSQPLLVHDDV
# Sequence of GSK3α (P49840 whole entry): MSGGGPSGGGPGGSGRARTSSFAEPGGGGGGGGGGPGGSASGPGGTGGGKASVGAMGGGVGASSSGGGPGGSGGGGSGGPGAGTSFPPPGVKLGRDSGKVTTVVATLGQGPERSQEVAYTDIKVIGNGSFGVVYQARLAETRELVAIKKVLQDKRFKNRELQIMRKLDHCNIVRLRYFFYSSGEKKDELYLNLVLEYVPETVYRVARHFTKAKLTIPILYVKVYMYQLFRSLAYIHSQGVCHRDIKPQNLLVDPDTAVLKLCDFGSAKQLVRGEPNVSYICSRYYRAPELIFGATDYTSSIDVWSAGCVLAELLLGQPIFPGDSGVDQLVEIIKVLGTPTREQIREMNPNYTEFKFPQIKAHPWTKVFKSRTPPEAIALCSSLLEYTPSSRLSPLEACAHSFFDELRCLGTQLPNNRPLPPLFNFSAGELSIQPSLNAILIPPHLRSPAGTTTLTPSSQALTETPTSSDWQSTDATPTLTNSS
# Sequence of FGFR2 (P21802 22-821): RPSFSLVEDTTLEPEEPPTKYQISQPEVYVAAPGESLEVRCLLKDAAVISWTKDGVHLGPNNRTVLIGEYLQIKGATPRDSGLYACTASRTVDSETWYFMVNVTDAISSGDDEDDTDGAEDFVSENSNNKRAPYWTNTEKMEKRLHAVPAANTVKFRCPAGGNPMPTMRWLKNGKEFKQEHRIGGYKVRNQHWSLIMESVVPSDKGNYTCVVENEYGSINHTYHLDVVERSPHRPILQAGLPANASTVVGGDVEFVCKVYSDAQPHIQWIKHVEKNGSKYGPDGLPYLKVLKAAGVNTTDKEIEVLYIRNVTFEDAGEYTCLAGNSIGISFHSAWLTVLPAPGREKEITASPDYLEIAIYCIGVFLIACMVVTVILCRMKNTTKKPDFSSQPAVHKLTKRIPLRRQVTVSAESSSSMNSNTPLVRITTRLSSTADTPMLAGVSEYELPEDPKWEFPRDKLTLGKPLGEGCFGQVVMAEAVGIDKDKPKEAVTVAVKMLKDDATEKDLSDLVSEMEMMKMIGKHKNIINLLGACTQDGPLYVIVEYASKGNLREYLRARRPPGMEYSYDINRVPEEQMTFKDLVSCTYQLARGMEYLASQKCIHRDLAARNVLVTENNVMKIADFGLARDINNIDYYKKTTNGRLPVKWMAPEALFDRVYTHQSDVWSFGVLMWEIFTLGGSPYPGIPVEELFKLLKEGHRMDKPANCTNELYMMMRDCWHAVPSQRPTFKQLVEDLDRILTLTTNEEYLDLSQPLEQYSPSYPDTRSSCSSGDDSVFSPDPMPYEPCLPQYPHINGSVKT
# Sequence of Fyn (P06241 whole entry): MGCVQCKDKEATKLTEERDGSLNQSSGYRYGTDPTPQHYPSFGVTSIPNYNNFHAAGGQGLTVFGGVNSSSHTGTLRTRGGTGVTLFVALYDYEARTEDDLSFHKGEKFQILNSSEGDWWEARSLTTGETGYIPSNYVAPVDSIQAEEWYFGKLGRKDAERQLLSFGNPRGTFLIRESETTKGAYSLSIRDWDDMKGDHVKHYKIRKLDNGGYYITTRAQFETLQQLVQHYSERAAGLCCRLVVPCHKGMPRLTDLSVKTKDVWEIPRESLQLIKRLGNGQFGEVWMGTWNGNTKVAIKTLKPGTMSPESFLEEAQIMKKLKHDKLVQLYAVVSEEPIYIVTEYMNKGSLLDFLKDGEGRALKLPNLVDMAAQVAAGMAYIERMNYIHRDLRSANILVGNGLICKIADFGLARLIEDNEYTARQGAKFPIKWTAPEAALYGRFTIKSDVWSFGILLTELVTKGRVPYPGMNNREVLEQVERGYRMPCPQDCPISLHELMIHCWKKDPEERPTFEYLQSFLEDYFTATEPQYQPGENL
# Sequence of p70S6K (P23443 whole entry): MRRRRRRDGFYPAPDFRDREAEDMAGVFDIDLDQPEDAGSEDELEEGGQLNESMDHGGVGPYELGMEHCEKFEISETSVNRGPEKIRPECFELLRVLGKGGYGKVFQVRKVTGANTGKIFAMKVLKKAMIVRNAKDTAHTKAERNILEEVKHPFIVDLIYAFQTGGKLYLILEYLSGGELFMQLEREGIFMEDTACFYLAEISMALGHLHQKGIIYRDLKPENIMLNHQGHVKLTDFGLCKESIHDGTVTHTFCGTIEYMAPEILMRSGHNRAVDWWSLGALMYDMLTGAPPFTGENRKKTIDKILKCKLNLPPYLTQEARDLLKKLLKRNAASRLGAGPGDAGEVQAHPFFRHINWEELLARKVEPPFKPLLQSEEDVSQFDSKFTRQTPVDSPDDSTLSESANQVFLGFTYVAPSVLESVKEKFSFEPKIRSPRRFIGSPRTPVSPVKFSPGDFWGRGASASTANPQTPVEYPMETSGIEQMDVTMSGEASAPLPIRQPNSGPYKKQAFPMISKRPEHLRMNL
# Sequence of Fes (P07332 whole entry): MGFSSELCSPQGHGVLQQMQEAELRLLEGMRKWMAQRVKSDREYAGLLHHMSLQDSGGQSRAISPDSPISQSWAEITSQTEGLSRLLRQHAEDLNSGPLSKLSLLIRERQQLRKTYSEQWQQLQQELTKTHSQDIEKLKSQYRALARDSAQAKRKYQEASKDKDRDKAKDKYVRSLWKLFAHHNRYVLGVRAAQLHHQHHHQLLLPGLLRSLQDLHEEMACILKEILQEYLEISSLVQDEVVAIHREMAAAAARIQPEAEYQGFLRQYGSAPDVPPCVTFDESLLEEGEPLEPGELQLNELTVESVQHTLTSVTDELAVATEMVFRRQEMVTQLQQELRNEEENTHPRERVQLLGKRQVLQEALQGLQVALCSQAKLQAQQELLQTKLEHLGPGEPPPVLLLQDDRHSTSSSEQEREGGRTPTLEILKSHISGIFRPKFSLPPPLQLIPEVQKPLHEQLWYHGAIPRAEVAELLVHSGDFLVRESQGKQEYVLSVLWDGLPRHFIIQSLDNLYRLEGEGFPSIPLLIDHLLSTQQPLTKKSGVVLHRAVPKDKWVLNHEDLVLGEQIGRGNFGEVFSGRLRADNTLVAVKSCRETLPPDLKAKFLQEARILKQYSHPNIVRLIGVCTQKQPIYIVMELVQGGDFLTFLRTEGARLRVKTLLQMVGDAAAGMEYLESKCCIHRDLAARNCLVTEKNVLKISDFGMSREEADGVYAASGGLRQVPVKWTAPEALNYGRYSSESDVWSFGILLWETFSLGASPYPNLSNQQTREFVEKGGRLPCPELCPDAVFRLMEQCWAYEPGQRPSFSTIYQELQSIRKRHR
# Sequence of CDK5/p25 (Q00535 whole entry): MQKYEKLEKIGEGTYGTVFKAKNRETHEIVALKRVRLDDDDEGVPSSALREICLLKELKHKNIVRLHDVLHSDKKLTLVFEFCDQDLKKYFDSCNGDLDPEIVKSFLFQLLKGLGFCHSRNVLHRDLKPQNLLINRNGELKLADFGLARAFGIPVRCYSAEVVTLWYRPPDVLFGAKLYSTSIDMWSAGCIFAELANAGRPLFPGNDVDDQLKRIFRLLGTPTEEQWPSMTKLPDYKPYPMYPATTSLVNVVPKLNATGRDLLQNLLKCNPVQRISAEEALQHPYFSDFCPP
# Sequence of CDK5/p25 (Q15078 99-307 partner limits assumed): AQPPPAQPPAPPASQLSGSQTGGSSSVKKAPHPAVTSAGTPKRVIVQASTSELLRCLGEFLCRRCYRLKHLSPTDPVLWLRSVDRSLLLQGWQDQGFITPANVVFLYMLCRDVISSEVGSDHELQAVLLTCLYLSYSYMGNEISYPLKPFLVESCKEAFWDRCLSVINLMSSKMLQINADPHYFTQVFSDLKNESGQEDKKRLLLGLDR
smiles,measurement,setting,value
"COc1cc(O)c(CC=C(C)C)c(O)c1C(=O)/C=C/c1ccc(O)cc1 [Xanthohumol, xanthohumol]",remaining activity at 5 µg/mL,[1]; 5 ug/ml,36%
same,remaining activity at 25 µg/mL,[1]; 25 ug/ml,10%
same,remaining activity at 1 µg/mL,[2]; 1 ug/ml,104%
same,remaining activity at 5 µg/mL,[2]; 5 ug/ml,66%
same,remaining activity at 25 µg/mL,[2]; 25 ug/ml,42%
same,remaining activity at 50 µg/mL,[2]; 50 ug/ml,18%
same,remaining activity at 1 µg/mL,[3]; 1 ug/ml,102%
same,remaining activity at 25 µg/mL,[3]; 25 ug/ml,11%
same,remaining activity at 50 µg/mL,[3]; 50 ug/ml,-4%
same,remaining activity at 1 µg/mL,[4]; 1 ug/ml,104%
same,remaining activity at 5 µg/mL,[4]; 5 ug/ml,71%
same,remaining activity at 25 µg/mL,[4]; 25 ug/ml,45%
same,remaining activity at 50 µg/mL,[4]; 50 ug/ml,42%
same,remaining activity at 5 µg/mL,[5],84%
same,remaining activity at 25 µg/mL,[6]; 25 ug/ml,24%
same,remaining activity at 50 µg/mL,[6]; 50 ug/ml,87%
same,remaining activity at 1 µg/mL,[7]; 1 ug/ml,116%
same,remaining activity at 5 µg/mL,[7]; 5 ug/ml,89%
same,remaining activity at 25 µg/mL,[7]; 25 ug/ml,36%
same,remaining activity at 1 µg/mL,[8]; 1 ug/ml,133%
same,remaining activity at 25 µg/mL,[8]; 25 ug/ml,19%
same,remaining activity at 50 µg/mL,[8]; 50 ug/ml,-5%
same,remaining activity at 1 µg/mL,[9]; 1 ug/ml,102%
same,remaining activity at 5 µg/mL,[9]; 5 ug/ml,95%
same,remaining activity at 25 µg/mL,[9]; 25 ug/ml,61%
same,remaining activity at 50 µg/mL,[9]; 50 ug/ml,48%
same,remaining activity at 1 µg/mL,[10]; 1 ug/ml,94%
same,remaining activity at 5 µg/mL,[10]; 5 ug/ml,48%
same,remaining activity at 25 µg/mL,[10]; 25 ug/ml,19%
same,remaining activity at 50 µg/mL,[10]; 50 ug/ml,7%
same,remaining activity at 1 µg/mL,[11]; 1 ug/ml,131%
same,remaining activity at 5 µg/mL,[11]; 5 ug/ml,106%
same,remaining activity at 25 µg/mL,[11]; 25 ug/ml,102%
same,remaining activity at 50 µg/mL,[11]; 50 ug/ml,26%
same,remaining activity at 1 µg/mL,[12]; 1 ug/ml,94%
same,remaining activity at 5 µg/mL,[12]; 5 ug/ml,45%
same,remaining activity at 25 µg/mL,[12]; 25 ug/ml,14%
